# Experimental data from article PMC7878891 (Scientific Reports, 2021).
# Tests used:
# [1] = target: PL^proCoV2 (recombinant SARS-CoV-2 PL^pro) (Severe acute respiratory syndrome coronavirus 2, UniProt P0DTD1); type: biochemical; conditions: for IC50: read-out: IC50 toward PL^proCoV2
# [2] = target: PL^proSARS (recombinant SARS-CoV-1 PL^pro) (Severe acute respiratory syndrome coronavirus, UniProt P0C6X7); assay: biochemical; type: biochemical
# CoV2 = conditions: read-out: EC50 antiviral activity in cell-based assay; cited from earlier work
# PL^proCoV2 = PL^proCoV2 (Severe acute respiratory syndrome coronavirus 2, UniProt P0DTD1); type: biochemical, SARS-CoV-2
# PL^proSARS = PL^proSARS (Severe acute respiratory syndrome coronavirus, UniProt P0C6X7); type: biochemical, SARS-CoV-1
structure (smiles),measurement,setting,value
"O=c1c2ccccc2[se]n1-c1ccccc1O [1d, 2-(2-Hydroxyphenyl)-1,2-benzisoselenazol-3(2H)-one]",Inhibition of PL^proCoV2 at 2 μM,[1],fully
same,IC50,[1],236 nM
"COc1ccccc1-n1[se]c2ccccc2c1=O [1e, 2-(2-Methoxyphenyl)-1,2-benzisoselenazol-3(2H)-one]",Inhibition of PL^proCoV2 at 2 μM,[1],fully
same,IC50,[1],256 ± 35 nM
"O=C(Nc1ccccc1O)c1ccccc1[Se][Se]c1ccccc1C(=O)Nc1ccccc1O [2d, Bis[2-(2-hydroxyphenylcarbamoyl)phenyl] diselenide]",IC50,[1],339 ± 109 nM
"COc1ccccc1NC(=O)c1ccccc1[Se][Se]c1ccccc1C(=O)Nc1ccccc1OC [2e, Bis[2-(2-methoxyphenylcarbamoyl)phenyl] diselenide]",IC50,[1],263 ± 121 nM
"O=c1c2ccccc2[se]n1-c1ccccc1 [ebselen, 2-Phenyl-1,2-benzisoselenazol-3(2H)-one]",Mechanism of inhibition of PL^proSARS,[2],irreversible
same,IC50,[2]; IC50 PL^proSARS 60 min incubation,8450 ± 960 nM
same,IC50,[2]; IC50 PL^proSARS no incubation,> 200000 nM
same,EC50,CoV2,4670 nM
same,Reactivation of PL^proCoV2 after dialysis,PL^proCoV2,reactivation was not observed
same,Mechanism of inhibition of PL^proCoV2,[1],irreversible
same,Reactivation of PL^proSARS after dialysis,PL^proSARS,reactivation was not observed
